Tests used:
Type in all cases: physicochemical
[1] = Dissolution in flow-through apparatus (flow cell), 10−4N NaOH; settings: for Dissolution Rate: 10−4N NaOH, room temperature
Protocol: In order to test an apparatus associated with the present disclosure against a rotating disk apparatus, the dissolution rate of Triamterene free base was determined in dilute NaOH. The dissolution media was chosen to be 10−4N NaOH, since at alkaline pH, the Triamterene free base is not ionized. This condition makes theoretical comparisons of flux easier since it is not necessary to account for multiple species (ionized and unionized species) and Levich's mathematical solution for dissolution from a rotating disk transport is valid. Dissolution rate was also studied in an exemplary flow-through apparatus associated with the present disclosure. The dissolution medium (10−4N NaOH) was run continuously at 0.5, 1.5, 7.0, 20 mL/min. Triamterene free base was compressed into the insert by a mini-vise. Since a pressure reading is not possible on this vise, the mass of the drug in the insert was recorded and the porosity was calculated by using the dimensions of the insert, thickness of the drug compact and true density of the Triamterene free base as measured by pycnometry. Porosity of 10% or less was considered acceptable. Triamterene was detected via fluorescence with excitation at 370 nm and emission at 432 nm. The rotating disk results are shown in FIG. 29 for each rotation speed. As expected, an increase in rotation speed leads to an increase in dissolution rate. The dissolution rate for the entire experiment is represented by the slope of this line. Because this is the Triamterene free base dissolving in alkaline conditions, it is not expected to undergo a conversion, thus a constant dissolution rate vs. time curve is expected. However, interesting results can be seen in FIG. 30 showing dissolution rate vs. time data. […] The data from FIGS. 32 and 33 were used to estimate the dissolution rate at each volumetric flow rate for FIG. 34.

[2] = Rotating disk dissolution in HCl
Excerpt: Dissolution data are often collected in terms of amount dissolved curve vs. time. This is the case for rotating disk experiments due to the nature of the apparatus, i.e., batch operation. In rotating disk experiments, a change in solid form (such as salt form, polymorph form, amorphous to crystalline form) is indicated by a change in slope in a cumulative dissolution curve. A change of slope signifies a change in dissolution rate. […] In FIG. 20, the change in slope occurs at approximately 45 minutes, although it is difficult to determine an exact time due to some curvature in the plot.
These phenomena can be better understood by plotting a dissolution rate vs. time curve. For the rotating disk, data are still collected in a cumulative manner; however, further data treatment makes a change in slope easier to recognize. From a cumulative amount dissolved curve the slope between each set of adjacent points is taken and plotted against the midpoint of time. Using this method, it is easier to point out the time when the dissolution rate changes and determine the terminal dissolution rate. The resultant plot is a dissolution rate vs. time curve.

[3] = Flow-through apparatus dissolution in HCl with stereomicroscope imaging; settings: flow cell
Protocol: A flow-through apparatus associated with the present disclosure was tested using a model compound. Triamterene free base was chosen as the model compound as this is readily available and there is literature available on its various salt forms. An advantage of an apparatus associated with the present disclosure is that the user is able to observe the solid during dissolution. The following experimental results are preliminary data for a flow-through apparatus experiment (before the compression step was controlled). Approximately 20 mg of a sample drug was compressed in an insert for dissolution. Flow-through experiments were performed using 0.1N or 0.001N HCl as the dissolution medium pumped through a dissolution channel at 5 ml/min and 25 ml/min. Triamterene concentration in the effluent was measured by UV analysis at 370 nm. […] With the flow cell mounted in a jig so that it is tilted slightly, it is possible to capture images that show the face of the drug compact that is exposed to the fluid as well as the “control” dry surface face adjacent to the glass plate. Flow is from left to right in the following figures of Triamterene Free Base Dissolution in 0.1 N HCl at 25 ml/min: FIG. 23 at t=0; FIG. 24 at t=5 min; FIG. 25 at t=10 min; FIG. 26 at t=15 min; FIG. 27 at t=20 min; FIG. 28 at 25 minutes.

[4] = Rotating disk (Wood's die) dissolution, 10−4N NaOH; settings: for Dissolution Rate: rotating disk, 900 ml 10−4N NaOH, room temperature
Protocol: In order to test an apparatus associated with the present disclosure against a rotating disk apparatus, the dissolution rate of Triamterene free base was determined in dilute NaOH. The dissolution media was chosen to be 10−4N NaOH, since at alkaline pH, the Triamterene free base is not ionized. This condition makes theoretical comparisons of flux easier since it is not necessary to account for multiple species (ionized and unionized species) and Levich's mathematical solution for dissolution from a rotating disk transport is valid. Rotating disk dissolution was run in a standard dissolution apparatus at 25, 80 and 200 rpm. The dissolution medium was 900 ml of 10−4 N NaOH at room temperature (since the flow cell has no temperature control at this time). The Wood's die apparatus has an exposed drug surface area of 0.5 cm^2. Approximately 125 mg of Triamterene free base was compressed into the die using a Carver Press. The compression conditions were 5000 lbs of force for 30 seconds. Triamterene was detected via fluorescence with excitation at 370 nm and emission at 432 nm. The rotating disk results are shown in FIG. 29 for each rotation speed. As expected, an increase in rotation speed leads to an increase in dissolution rate. The dissolution rate for the entire experiment is represented by the slope of this line. Because this is the Triamterene free base dissolving in alkaline conditions, it is not expected to undergo a conversion, thus a constant dissolution rate vs. time curve is expected. However, interesting results can be seen in FIG. 30 showing dissolution rate vs. time data. […] The data from FIGS. 32 and 33 were used to estimate the dissolution rate at each volumetric flow rate for FIG. 34.

| Course of dissolution rate with time ([1]; 0.5-20 mL/min, 10−4N NaOH (FIG. 33)) | Dissolution Rate ([1]; flow rate 0.5 ml/min) | Dissolution Rate ([1]; flow rate 1.5 ml/min) | Dissolution Rate ([1]; flow rate 7.0 ml/min) | Dissolution Rate ([1]; flow rate 20 ml/min) | Time of change in slope of cumulative amount dissolved vs. time curve ([2]; rotating disk, 0.001N HCl, 50 rpm, preliminary data (FIG. 20)) | Observable changes of the solid in stereomicroscope images ([3]; 0.001 HCl, 5 mL/min) | Time after which the dissolution rate is relatively constant ([3]; 0.001 HCl, 5 mL/min (FIG. 22)) | Time until which the new solid grows before it is washed away with the fluid ([3]; 0.1N HCl, 25 ml/min) | Dissolution Rate ([4]; 25 rpm) | Dissolution Rate ([4]; 80 rpm) | Dissolution Rate ([4]; 200 rpm) | Comparison of dissolution rate between HCl concentrations ([2]; rotating disk, 0.1, 0.01 or 0.001N HCl) | Rank order of dissolution rate with pH ([2]; rotating disk, chloride ion concentration normalized to 0.1N HCl) | Compound | Salt transformation observed during dissolution ([3]; 0.1N HCl, 25 ml/min) | Observation of drug compact during dissolution ([3]; 0.1N HCl, 25 ml/min, after five minutes (FIG. 24)) | Course of dissolution rate with time ([4]; rotating disk, 25, 80 and 200 rpm, 10−4N NaOH (FIG. 30)) |
| --- | --- | --- | --- | --- | --- | --- | --- | --- | --- | --- | --- | --- | --- | --- | --- | --- | --- |
| decrease of dissolution rate with time | 1.1 ug/cm^2min | 1.5 ug/cm^2min | 2.7 ug/cm^2min | 4.7 ug/cm^2min | approximately 45 minutes | did not reveal any observable changes | 25 min | 15 min | 0.8 ug/cm^2min | 1.5 ug/cm^2min | 2.3 ug/cm^2min |  |  | Nc1nc(N)c2nc(-c3ccccc3)c(N)nc2n1 [Triamterene free base, Triamterene] | significant hydrochloride salt growth on the drug surface | nucleation and significant crystal growth has occurred | initial decrease in the dissolution rate with time |
|  |  |  |  |  |  |  |  |  |  |  |  | highest dissolution rate in 0.01N HCl | 0.1N>0.01N>0.001N HCl | Triamterene citrate |  |  |  |

From US7892492B2, “Flow-through apparatus for microscopic investigation of dissolution of pharmaceutical solids” (University of Connecticut, priority 2006, dated 2011)
